Measured values reported in patent publication EP3201178B1 (University of Hertfordshire Higher Education Corporation, priority 2014, dated 2016).

What was measured:
dopamine D2 receptors = dopamine D2 receptors (Homo sapiens, UniProt P14416); assay: binding affinity for the D2 DA receptor; conditions: for affinity for dopamine D2 receptors: result in words
SH-SY5Y cells = conditions: Tovilovic et al., 2012; cited from earlier work
[1] = test system: rat primary ventral mesencephalic neurones; assay: MTT viability assay, lactacystin cytotoxicity on primary ventral mesencephalic neurones; format: cell-based; conditions: lactacystin 5µM, rat ventral mesencephalic cells in culture
Excerpt: (§1) • Figure 1 illustrates Scheme 1, the synthetic route and chemical structures N-{4-[2-(4-aryl-piperazin-1-yl)-ethyl]-phenyl}-arylsulphonamides, N-{3-[2-(4-aryl-piperazin-1-yl)-ethyl]-phenyl}-arylsulphonamides and N-{2-[2-(4-aryl-piperazin-1-yl)-ethyl]-phenyl}-arylsulphonamides; • Figure 2 illustrates Scheme 2 the synthetic route and chemical structures of the N-{4-[2-(4-aryl-piperazin-1-yl)-methyl]-phenyl}-arylsulphonamides, N-{3-[2-(4-aryl-piperazin-1-yl)-methyl]-phenyl}-arylsulphonamides and N-{2-[2-(4-aryl-piperazin-1-yl)-methyl]-phenyl}-arylsulphonamides; • Figure 3 illustrates Table 1 illustrating the chemical structure and binding affinity of the some new arylpiperazine-sulphonamides for the D2 DA and 5-HT1A receptors; • Figure 4 illustrates the effect of compounds 1 and 2 on motor clinical scores; • Figure 5 illustrates the viability of rat ventral mesencephalic cells in culture following administration of proteasomal inhibitor lactacystin (5µM) using MTT assay. Compound 4h (4207) and 4f (4295) are protective against the effect of lactacystin in this model; and • Figure 6 illustrates the viability of ventral mesencephalic neurones using calcein AM assay.

[2] = test system: ventral mesencephalic neurones; assay: calcein AM fluorescence viability assay against lactacystin; format: cell-based, rat; conditions: 5 µM lactacystin; for protection against lactacystin in calcein AM fluorescence assay: compound concentrations 0.1 to 1 µM; for neuroprotection against lactacystin in calcein AM fluorescence assay at higher concentrations: compound concentrations 10 to 100 µM; for viability of ventral mesencephalic neurones, calcein AM assay (Figure 6 legend): low to medium concentrations of compound
Excerpt: as §1

5-HT1a receptors = molecular target: T1, 5-HT1a receptors (Homo sapiens, UniProt P08908); assay: binding affinity for the 5-HT1A receptor
T1 sequence (P08908 1-422): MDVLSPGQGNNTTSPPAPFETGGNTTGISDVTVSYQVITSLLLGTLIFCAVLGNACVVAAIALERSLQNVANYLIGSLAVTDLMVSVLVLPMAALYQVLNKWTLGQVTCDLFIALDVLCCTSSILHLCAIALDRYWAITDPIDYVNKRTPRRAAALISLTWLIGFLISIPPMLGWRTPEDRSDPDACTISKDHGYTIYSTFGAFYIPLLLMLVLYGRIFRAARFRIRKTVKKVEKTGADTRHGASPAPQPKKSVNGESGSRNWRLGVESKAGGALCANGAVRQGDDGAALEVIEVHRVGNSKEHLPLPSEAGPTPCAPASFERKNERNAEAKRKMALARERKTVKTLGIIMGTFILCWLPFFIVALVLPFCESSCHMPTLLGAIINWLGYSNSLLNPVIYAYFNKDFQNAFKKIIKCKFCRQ

Chain of dopamine D2 receptors (P14416 whole entry): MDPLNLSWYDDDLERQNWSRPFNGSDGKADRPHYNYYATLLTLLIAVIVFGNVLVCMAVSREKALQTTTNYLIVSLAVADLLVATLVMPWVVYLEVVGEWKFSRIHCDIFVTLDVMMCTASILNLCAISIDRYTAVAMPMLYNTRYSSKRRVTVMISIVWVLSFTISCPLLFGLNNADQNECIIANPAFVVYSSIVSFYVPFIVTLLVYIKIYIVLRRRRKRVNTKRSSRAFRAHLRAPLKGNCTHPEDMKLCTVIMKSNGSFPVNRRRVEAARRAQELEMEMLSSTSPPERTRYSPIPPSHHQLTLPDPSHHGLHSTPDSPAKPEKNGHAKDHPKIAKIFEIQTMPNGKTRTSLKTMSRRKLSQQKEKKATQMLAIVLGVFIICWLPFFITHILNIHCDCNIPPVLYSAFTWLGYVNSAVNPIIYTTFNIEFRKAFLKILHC

| SMILES | affinity for dopamine D2 receptors (dopamine D2 receptors) | preventing mitochondrial damage and apoptosis induced by nitric oxide (NO) (SH-SY5Y cells) | protection of dopaminergic neurons against lactacystin (cell viability, MTT assay) [1] | protection against lactacystin in calcein AM fluorescence assay [2] | neuroprotection against lactacystin in calcein AM fluorescence assay at higher concentrations [2] | viability of ventral mesencephalic neurones, calcein AM assay (Figure 6 legend) [2] | protection of dopaminergic neurons against lactacystin (cell viability, MTT assay) ([1]; hydrochloride) | other results |
| --- | --- | --- | --- | --- | --- | --- | --- | --- |
| O=C(Nc1ccc(CCN2CCN(c3ccccc3)CC2)cc1)c1ccccn1 [Compound 1, N-{4-[2-(4-phenyl-piperazin-1-yl)ethyl]-phenyl}-picolinamide, reference compound] | moderate affinity | most active | – | – | – | – | – | – |
| O=C(Nc1cccc(CCN2CCN(c3ccccc3)CC2)c1)c1ccccn1 [Compound 2, N-{3-[2-(4-phenyl-piperazin-1-yl)ethyl]-phenyl}-picolinamide, reference compound] | moderate affinity | most active | – | – | – | – | – | – |
| O=S(=O)(Nc1ccc(CCN2CCN(c3ccccc3)CC2)cc1)c1ccccn1 [Compound 4f, N-{4-[2-(4-phenyl-piperazin-1-yl)-ethyl]-phenyl}-2-pyridylsulphonamide] | – | – | protective | afford protection | neuroprotection was reversed | reversed cell death | – | Ki (dopamine D2 receptors): 4.43 nM; protection of dopaminergic neurons against lactacystin (cell viability, MTT assay) ([1]; listed as 4295): markedly protected |
| Cl.O=S(=O)(Nc1cccc(CCN2CCN(c3ccccc3)CC2)c1)c1cccnc1 [Compound 4h, N-{3-[2-(4-phenyl-piperazin-1-yl)-ethyl]-phenyl}-3-pyridylsulphonamide hydrochloride] | little or no affinity | – | – | afford protection | neuroprotection was reversed | reversed cell death | protective | Ki (5-HT1a receptors): 6.88 nM; protection of dopaminergic neurons against lactacystin (cell viability, MTT assay) ([1]; listed as 4207, hydrochloride): most protection |
| Cl.O=S(=O)(Nc1cccc(CCN2CCN(c3ccccc3)CC2)c1)c1cccnc1 [Compound 4208, N-{3-[2-(4-phenyl-piperazin-1-yl)-ethyl]-phenyl}-3-pyridylsulphonamide hydrochloride] | – | – | – | – | – | – | markedly protected | – |
| O=S(=O)(Nc1cccc(CCN2CCN(c3ccccc3)CC2)c1)c1ccccn1 [Compound 4298] | – | – | markedly protected | – | – | – | – | – |
